Series [1] deals with platelet aggregation (GPIIb/IIIa receptors on platelets). As to the kind of experiment: inhibition of platelet aggregation, in vitro activity (FIG. 1, FIG. 2). Type of series: cell-based. As to conditions: for in vitro activity (inhibition of platelet aggregation) compared with unmodified 7E3 Fab′: FIG. 1, versus unmodified Fab; for binding activity / in vitro activity (inhibition of platelet aggregation) compared with unmodified antibody fragment ReoPro: FIG. 2; for in vitro activity (inhibition of platelet aggregation) compared with unmodified antibody fragment ReoPro: versus ReoPro. From the text: FIG. 1 depicts a comparison of the inhibition of platelet aggregation by two pseudo-antibodies (7E3 Fab′ (PEG3.4K-DSPE)2 and 7E3 Fab′ (PEG3.4K-PAL)2) and one unmodified antibody fragment (7E3 Fab).
FIG. 2 depicts a comparison of the inhibition of platelet aggregation by two pseudo-antibodies (7E3 Fab′ (PEG5K)2 and 7E3 Fab′ (PEG10K)2) and one unmodified antibody fragment (ReoPro®).
The organic moieties portions of these constructs may also be dimerized, such that n=2. For example, the antibody fragment 7E3 Fab′ was used to construct the pseudo-antibody 7E3 Fab′ (PEG3.4k-DSPE)2 and the pseudo-antibody 7E3 Fab′ (PEG3.4.k-PAL)2 and the in vitro activities were compared with unmodified 7E3 Fab′.
Additionally, 7E3 Fab′ was used to construct the pseudo-antibodies 7E3 Fab′ (PEG5k)2 and 7E3 Fab′ (PEG10k)2 and the in vitro activites were compared with the unmodified antibody fragment ReoPro®.

Series [2] is described as follows: in vivo pharmacokinetic analysis, circulating half-life / clearance in mice (FIG. 3). To be noted: equimolar doses. The method, then: FIG. 3 depicts a comparison of in vivo circulating half-life, in mice, of two pseudo-antibodies, 7E3 Fab′ (PEG3.4K-DSPE)2 and 7E3 Fab′ (PEG5K)2.
For in vivo pharmacokinetic analysis, c7E3 Fab′ (PEG3.4k-DSPE)2 and c7E3 Fab′ (PEG5k) were prepared, and given to mice in equimolar doses. The results are depicted in FIG. 3.

The target of series [3] is T1, MMP 2 (Homo sapiens, UniProt P08253).
T1 sequence (P08253 110-660): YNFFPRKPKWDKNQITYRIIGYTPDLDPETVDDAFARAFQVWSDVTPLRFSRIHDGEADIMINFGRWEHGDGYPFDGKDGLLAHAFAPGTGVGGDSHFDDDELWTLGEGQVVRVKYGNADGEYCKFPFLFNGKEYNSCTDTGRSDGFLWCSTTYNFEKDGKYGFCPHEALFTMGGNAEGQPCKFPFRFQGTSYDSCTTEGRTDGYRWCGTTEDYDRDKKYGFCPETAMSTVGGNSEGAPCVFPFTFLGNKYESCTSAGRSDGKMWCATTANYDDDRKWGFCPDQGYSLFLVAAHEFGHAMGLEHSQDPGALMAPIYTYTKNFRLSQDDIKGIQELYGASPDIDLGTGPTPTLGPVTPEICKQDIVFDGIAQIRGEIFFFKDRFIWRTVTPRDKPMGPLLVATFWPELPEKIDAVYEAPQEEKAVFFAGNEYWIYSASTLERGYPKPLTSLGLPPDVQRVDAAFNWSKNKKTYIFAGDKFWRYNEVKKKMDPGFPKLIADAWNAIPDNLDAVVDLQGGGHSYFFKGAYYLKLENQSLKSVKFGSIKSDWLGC
As to conditions: cited from earlier work.

Series [4] addresses MMP 9 (Homo sapiens, UniProt P14780). To be noted: cited from earlier work.
Series [5] concerns the target MMP 3 (Homo sapiens, UniProt P08254). To be noted: cited from earlier work.
Series [6] concerns adjuvant arthritic rat. As to conditions: bone mineral density, MRI, micro-CT, histology; cited from earlier work.
The conditions of series [7]: cited from earlier work.

Sequence of MMP 3 (P08254 100-477): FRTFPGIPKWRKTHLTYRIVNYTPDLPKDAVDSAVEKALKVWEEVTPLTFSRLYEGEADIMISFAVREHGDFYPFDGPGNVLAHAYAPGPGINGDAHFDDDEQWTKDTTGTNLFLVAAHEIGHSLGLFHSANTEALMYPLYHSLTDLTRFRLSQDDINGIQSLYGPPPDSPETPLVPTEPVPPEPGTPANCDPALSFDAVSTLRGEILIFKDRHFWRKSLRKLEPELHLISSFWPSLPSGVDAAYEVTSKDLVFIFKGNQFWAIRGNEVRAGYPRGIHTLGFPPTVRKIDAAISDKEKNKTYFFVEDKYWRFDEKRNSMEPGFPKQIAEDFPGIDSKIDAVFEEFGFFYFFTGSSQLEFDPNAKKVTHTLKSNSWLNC
Sequence of MMP 9 (P14780 94-707): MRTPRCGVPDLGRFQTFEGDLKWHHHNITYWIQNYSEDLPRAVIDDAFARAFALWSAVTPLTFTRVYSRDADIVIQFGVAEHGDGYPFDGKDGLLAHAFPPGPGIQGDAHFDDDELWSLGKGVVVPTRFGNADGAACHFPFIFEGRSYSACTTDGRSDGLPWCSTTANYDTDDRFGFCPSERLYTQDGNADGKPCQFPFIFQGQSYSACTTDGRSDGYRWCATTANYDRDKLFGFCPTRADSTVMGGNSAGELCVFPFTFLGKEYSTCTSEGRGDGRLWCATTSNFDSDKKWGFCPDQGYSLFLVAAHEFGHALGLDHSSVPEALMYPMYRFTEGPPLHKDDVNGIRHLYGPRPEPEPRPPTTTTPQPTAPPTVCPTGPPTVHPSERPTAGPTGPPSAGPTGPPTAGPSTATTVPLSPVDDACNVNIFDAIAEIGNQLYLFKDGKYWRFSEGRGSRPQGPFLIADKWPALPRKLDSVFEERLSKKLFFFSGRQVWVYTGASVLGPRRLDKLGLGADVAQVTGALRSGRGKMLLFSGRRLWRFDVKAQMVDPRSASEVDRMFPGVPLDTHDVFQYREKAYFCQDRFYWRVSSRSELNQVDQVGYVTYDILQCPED

For the molecule “7E3 Fab′ (PEG3.4k-DSPE)2: pseudo-antibody: 7E3 Fab′ fragment with two PEG3.4k chains each ending in diesteroylphosphatidyl-ethanolamine (DSPE)”, the “in vitro activity (inhibition of platelet aggregation) compared with unmodified 7E3 Fab′” value in series [1] is “similar”. The rate of clearance result in series [2] is listed as “slower rate of clearance”.
On to “7E3 Fab′ (PEG5k)2: pseudo-antibody: 7E3 Fab′ fragment with two PEG5k chains”, for which, in series [1], the binding activity result is “binding activity was clearly retained” and the “in vitro activity (inhibition of platelet aggregation) compared with unmodified antibody fragment ReoPro” value is given as “somewhat lower in vitro activity than the unmodified antibody fragment”.
On the same counts, the results for “7E3 Fab′ (PEG10k)2: pseudo-antibody: 7E3 Fab′ fragment with two PEG10k chains” are “binding activity was clearly retained” and “somewhat lower in vitro activity than the unmodified antibody fragment”.
On to `O=C(C[C@H](CSc1ccccc1)C(=O)O)c1ccc(-c2ccc(Cl)cc2)cc1` [BAY12-9566], for which, in series [3], the “inhibitory activity against MMP 2” value is “nM inhibitory activity”. The “inhibitory activity against MMP 9” value in series [4] was “nM inhibitory activity”. For the same molecule, in series [5], the “inhibitory activity against MMP 3” value is reported as “nM inhibitory activity”.
Consider `COc1nccc(-c2c(-c3ccc(F)cc3)ncn2C2CCNCC2)n1` [SB 242235], for which the “activity in the adjuvant arthritic rat” value in series [6] is “inhibits inflammation and has significant joint-protective effects”.
Take `CCCCS(=O)(=O)N[C@@H](Cc1ccc(OCCCCC2CCNCC2)cc1)C(=O)O` [Tirofiban]: the “in vivo circulatory half-life” value in series [7] is “approximately two”.
For the molecule “c7E3 Fab′ (PEG5k): pseudo-antibody of c7E3 Fab′ with PEG5k, given to mice; probably the same as 7E3 Fab′ (PEG5K)2 of FIG. 3”, the rate of clearance entry in series [2] is listed as “cleared faster”.

B1: 7E3 Fab′ (PEG3.4.k-PAL)2: pseudo-antibody: 7E3 Fab′ fragment with two PEG3.4k chains each ending in palmatoyl (PAL) (conjugate, chains of the INN, looked up)
VH: EVQLQQSGTVLARPGASVKMSCEASGYTFTNYWMHWVKQRPGQGLEWIGAIYPGNSDTSYIQKFKGKAKLTAVTSTTSVYMELSSLTNEDSAVYYCTLYDGYYVFAYWGQGTLVTVSA
VL: EIVLTQSPVTLSVTPGDSVSLSCRASRDISNNLHWFQQTSHESPRLLIKYASQSMSGIPSRFSGSGSGTDFTLSINSVETEDFGMYFCQQTNSWPYTFGGGTKLEIK
modifications: Fab' two PEG3.4k-palmitoyl chains
As for B1, in series [1], the “in vitro activity (inhibition of platelet aggregation) compared with unmodified 7E3 Fab′” value is reported as “similar”.

The values above are taken from patent US20030211078A1, “Pseudo-antibody constructs” (priority 2001, published 2003).
